Data on 13 molecules can be found in patent US6844343B1, “N-substituted 4-aminopteridines, synthesis and use thereof as pharmaceutical agent” (Vasopharm Biotech GmbH, priority 1999, dated 2005).

Assay [1] concerns purified NO synthase from pig cerebellum or from pig liver. The experiment in a line: Activity assay of purified NOS (3H-L-arginine to 3H-L-citrulline conversion). Conditions: incubated in the presence of 5 kU/ml catalase for 45 minutes. The assay is classed as biochemical.
Assay [2] shares this test system. Described as above. Conditions: substance 100 μM, in the presence of 2 μM tetrahydrobiopterin, 15 min at 37° C. Type of assay: biochemical. As for the experimental part: The inhibition of the activity of purified nitric oxide synthase (NOS) by compounds of the general formula I can be determined as follows.
(§1) In this activity assay the L-citrulline which is a coproduct of the formation of NO by purified NOS is quantitatively measured. ^3H-radiolabeled L-arginine is employed as substrate of the enzyme reaction and is converted into ^3H-L-citrulline and NO. After completion of the enzyme incubation, generated L-citrulline is removed from unused L-arginine by ion exchange chromatography from the reaction mixture; the ^3H activity measured by liquid scintillation then is corresponds to the amount of L-citrulline, which is a direct measure of the activity of NOS.
The basic medium for carrying out the enzyme reaction is TE buffer (triethanolamine, EDTA, pH 7.0).
The final volume of each incubation is 100 μl. The reaction mixture is obtained by mixing the following 6 components on ice: • 1. “REA-Mix” (pH 7.0) which contains triethanolamine, calcium chloride, magnesium chloride, EDTA, L-arginine, calmodulin and flavin adenine dinucleotide (FAD); • 2. freshly prepared stock solution of β-nicotinamide adenine dinucleotide phosphate, reduced form (NADPH); • 3. (6R)-5,6,7,8-tetrahydro-L-biopterin dihydro-chloride stock solution (BH4) or —for experiments without BH4-instead TE buffer; • 4. purified NO synthase from pig cerebellum or from pig liver; • 5.
(§2) After mixing of the components on ice, the reaction mixture was immediately incubated in a water bath at 37° C. for 15 minutes. […] After this incubation time, the reaction was stopped by addition of 900 μl of ice-cold “stop buffer” (20 mM sodium acetate, 2 mM EDTA, pH 5.5), and the mixture (total volume now 1.0 ml) was placed on ice. To remove the unreacted ^3H-L-arginine, the mixture was loaded onto an ion exchange column with 0.8 ml of Dowex AG 50 WX-8 (100-200 mesh) which has previously been washed and equilibrated with 2 ml of stop buffer. After loading of the sample, the column was eluted twice with 1 ml of water each time. The flow-through of the sample and the eluate were collected in scintillation vessels and […] (total volume 3 ml). 9 ml of scintillator solution were added to the 3 ml of aqueous measurement solution, and the homogeneous mixture was measured in a Tricarb 2500 TR (Packard) liquid scintillation counter for 1 minute for each sample. […] Each substance was tested for an antagonistic effect in a concentration of 100 μM in the presence of 2 μM tetrahydrobiopterin, and for an agonistic effect on NOS in the absence of tetrahydrobiopterin.
All incubations were carried out on triplicates. Each experiment was repeated three times with different enzyme preparations.

The next assay concerns the target NOS-I (Homo sapiens, UniProt P29475). The experiment in a line: Inhibition of human NOS isoforms: NOS-I. The assay is classed as biochemical. As for the experimental part: as §1, §2
In addition, the relative selectivities of the antipterin inhibitors for the three known human NOS isoforms were measured. So doing, the IC50 values for NOS-II/NOS-I and NOS-III/NOS-I were formed (compare Table 2).

For another assay, the target named is NOS-II (Homo sapiens, UniProt P35228). The assay is described as follows: Inhibition of human NOS isoforms: NOS-II. Type of assay: biochemical. As for the experimental part:
(§3) After mixing of the components on ice, the reaction mixture was immediately incubated in a water bath at 37° C. for 15 minutes. […] After this incubation time, the reaction was stopped by addition of 900 μl of ice-cold “stop buffer” (20 mM sodium acetate, 2 mM EDTA, pH 5.5), and the mixture (total volume now 1.0 ml) was placed on ice. To remove the unreacted ^3H-L-arginine, the mixture was loaded onto an ion exchange column with 0.8 ml of Dowex AG 50 WX-8 (100-200 mesh) which has previously been washed and equilibrated with 2 ml of stop buffer. After loading of the sample, the column was eluted twice with 1 ml of water each time. The flow-through of the sample and the eluate were collected in scintillation vessels and […] (total volume 3 ml). 9 ml of scintillator solution were added to the 3 ml of aqueous measurement solution, and the homogeneous mixture was measured in a Tricarb 2500 TR (Packard) liquid scintillation counter for 1 minute for each sample. […] In addition, the relative selectivities of the antipterin inhibitors for the three known human NOS isoforms were measured. So doing, the IC50 values for NOS-II/NOS-I and NOS-III/NOS-I were formed (compare Table 2).

The target of another assay is NOS-III (Homo sapiens, UniProt P29474). The assay is described as follows: Inhibition of human NOS isoforms: NOS-III. Type of assay: biochemical. As for the experimental part: as §3
In assay [3] the test system is intact rat alveolar macrophages. The following applies: cited from earlier work.
The next assay has as its system NO synthase. Conditions: literature reports on BH4 analogues; cited from earlier work.

In general, IC50 refers to the concentration at which inhibition is half-maximal. On to “2-amino-4-(dibenzylamino)-6-(3,4-dimethoxyphenyl)-pteridine hemihydrate [Example 22]”, for which the IC50 in assay [1] was determined as 2 µM. Besides, the “Remaining activity (% of Vmax)” value in assay [2] is listed as 0 % of Vmax.
Take `CCCN(CCC)c1nc(N)nc2c1NC(c1ccc(OC)cc1)CN2.Cl.Cl.O.O` (stereo not drawn) [Example 47, 2-amino-4-(di-n-propylamino)-6-(4-methoxyphenyl)-5,6,7,8-tetrahydropteridine dihydrochloride dihydrate]: the “Activity (% of control)” value on NOS-I is 0 ± 0.1 % of control; at NOS-II (human NOS-II), 78 ± 0.4 % of control; at NOS-III (human NOS-III), 31 ± 3 % of control. Also, in assay [2], the “Remaining activity (% of Vmax)” value was 0 % of Vmax.
Consider `COc1ccc(-c2cnc3nc(N)nc(N(Cc4ccccc4)Cc4ccccc4)c3n2)cc1` [Example 21, 2-amino-4-(dibenzylamino)-6-(4-methoxyphenyl)-pteridine], for which the entries for the “Activity (% of control)” value at NOS-I, on NOS-II (human NOS-II) and at NOS-III (human NOS-III) were 27 ± 1 % of control, 81 ± 6 % of control and 68 ± 2 % of control, respectively. Besides, the “Remaining activity (% of Vmax)” value in assay [2] is recorded as 0 ± 0.05 % of Vmax.
On the same counts, the results for `CCCN(CCC)c1nc(N)nc2c1NC(c1ccccc1)CN2.Cl.Cl.Cl.O` (stereo not drawn) [Example 46, 2-amino-4-(di-n-propylamino)-6-phenyl-5,6,7,8-tetrahydropteridine trihydrochloride hydrate] are 1 ± 0.1 % of control, 68 ± 1 % of control, 27 ± 0.2 % of control and 8 ± 0.05 % of Vmax.
`C[C@H](O)C(=O)C1=Nc2c(nc(N)[nH]c2=O)NC1` [sepiapterin]: in assay [3], the “inhibition of NO production” value is “inhibition of NO production”.
As to `Nc1nc(N(Cc2ccccc2)Cc2ccccc2)c2nc(-c3ccc(Cl)cc3)cnc2n1.O.O` [Example 20, 2-amino-4-(dibenzylamino)-6-(4-chlorophenyl)-pteridine dihydrate], in assay [1], the IC50 came out at 3.5 µM. Besides, the “Remaining activity (% of Vmax)” value in assay [2] was 0 % of Vmax.
In the case of `CN(Cc1cnc2nc(N)nc(N)c2n1)c1ccc(C(=O)N[C@@H](CCC(=O)O)C(=O)O)cc1` [methotrexate], in the assay on NO synthase, the “effect on NO production / NO synthase” value was “no significant effects”.
In the case of “2-amino-4-(diethylamino)-6-(4-chlorophenyl)-5,6,7,8-tetrahydropteridine dihydrochloride hemi-hydrate [Example 48]”, the “Activity (% of control)” value at NOS-I is 2 ± 0 % of control; on NOS-II (human NOS-II), 74 ± 4 % of control; on NOS-III (human NOS-III) it was 27 ± 1 % of control. For the same molecule, the IC50 was 41.5 µM on NOS-I; 300 µM at NOS-II (human NOS-II, enzyme inhibition not complete up to 300 μM, IC50 values extrapolated); 8 µM in assay [1]; 45.4 µM against NOS-III (human NOS-III). Also, the “Ratio NOS-II/I” value at NOS-II (ratio of IC50 values NOS-II/NOS-I) is reported as 7.2. The “Ratio NOS-III/I” value at NOS-III (ratio of IC50 values NOS-III/NOS-I) is 1.1. The “Remaining activity (% of Vmax)” value in assay [2] is given as 0 % of Vmax.
In the case of `Nc1nc2ncc(CNc3ccc(C(=O)N[C@@H](CCC(=O)O)C(=O)O)cc3)nc2c(=O)[nH]1` [folic acid], in the assay on NO synthase, the “effect on NO production / NO synthase” value is recorded as “no significant effects”.
For the molecule `Nc1nc(NCC2CCCCC2)c2c(n1)NCC(c1ccc(Cl)cc1)N2` (stereo not drawn) [Example 49, 2-amino-4-(cyclohexylmethylamino)-6-(4-chloro-phenyl)-5,6,7,8-tetrahydropteridine dihydro-chloride hydrate], the “Activity (% of control)” value on NOS-I is on record as 0 ± 0.1 % of control; on NOS-II (human NOS-II), 78 ± 6 % of control; on NOS-III (human NOS-III), 18 ± 1 % of control. For the same molecule, the “Remaining activity (% of Vmax)” value in assay [2] is given as 0 % of Vmax.
Consider `CC1CNc2nc(N)[nH]c(=O)c2N1` (stereo not drawn) [6-methyl-5,6,7,8-tetrahydropterin], for which, in the assay with NO synthase, the “effect on NO production / NO synthase” value is reported as “able to partly replace the natural cofactor”.
Regarding Biopterin, in the assay with NO synthase, the “effect on NO production / NO synthase” value is given as “no significant effects”.
With `Nc1nc2ncc(C(=O)O)nc2c(=O)[nH]1` [Pterin-6-carboxylic acid], in assay [3], the “inhibition of NO production” value was “no effect”.
